We go through 5 molecules from ChEMBL document CHEMBL1201862, “PubChem BioAssay data set” (2004).

The source made the active and inactive calls.

Assay [1] has as its target Serine/threonine-protein kinase pim-3 (Homo sapiens, UniProt Q86V86). In kind it is functional.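 Also: value obtained as one member of a broad kinase panel profiling effort.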
Assay [2] concerns the target Serine/threonine-protein kinase PLK1 (Homo sapiens, UniProt P53350). The assay is classed as functional.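 Also: PLK1 measured as one member of a kinome-wide profiling panel.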
Assay [3] is described as follows: Luminescence Cell-Based Dose Confirmation HTS to Identify Activators of 5'UTR Stem-Loop Driven Alpha-Synuclein mRNA Translation in H4 Neuroglioblastoma Cells. [Related pubchem assays: 1829 (Project Summary), 1814 (Primary HTS)]. In kind it is functional.
Another assay is described as follows: cells. The assay is classed as functional, cell-based.
The target in another assay is T1, Exodeoxyribonuclease V (Escherichia coli (strain K12), UniProt P04993+P07648+P08394).
T1 sequence (P04993 whole entry): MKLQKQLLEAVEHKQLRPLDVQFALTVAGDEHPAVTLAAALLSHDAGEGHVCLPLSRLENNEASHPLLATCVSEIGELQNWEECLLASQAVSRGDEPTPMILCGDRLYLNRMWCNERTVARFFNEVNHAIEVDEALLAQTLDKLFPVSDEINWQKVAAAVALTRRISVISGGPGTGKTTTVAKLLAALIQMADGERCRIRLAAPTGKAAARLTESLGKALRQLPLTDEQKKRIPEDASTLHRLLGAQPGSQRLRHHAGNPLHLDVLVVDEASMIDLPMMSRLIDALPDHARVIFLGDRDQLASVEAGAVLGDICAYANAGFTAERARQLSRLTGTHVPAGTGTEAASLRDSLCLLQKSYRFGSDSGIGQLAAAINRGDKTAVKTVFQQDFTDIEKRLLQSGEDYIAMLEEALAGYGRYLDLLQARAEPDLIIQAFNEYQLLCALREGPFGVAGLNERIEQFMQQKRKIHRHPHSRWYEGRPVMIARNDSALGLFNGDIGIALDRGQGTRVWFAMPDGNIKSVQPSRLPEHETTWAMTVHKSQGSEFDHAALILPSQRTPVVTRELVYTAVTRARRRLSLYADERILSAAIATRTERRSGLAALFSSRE
T1 sequence (P07648 whole entry): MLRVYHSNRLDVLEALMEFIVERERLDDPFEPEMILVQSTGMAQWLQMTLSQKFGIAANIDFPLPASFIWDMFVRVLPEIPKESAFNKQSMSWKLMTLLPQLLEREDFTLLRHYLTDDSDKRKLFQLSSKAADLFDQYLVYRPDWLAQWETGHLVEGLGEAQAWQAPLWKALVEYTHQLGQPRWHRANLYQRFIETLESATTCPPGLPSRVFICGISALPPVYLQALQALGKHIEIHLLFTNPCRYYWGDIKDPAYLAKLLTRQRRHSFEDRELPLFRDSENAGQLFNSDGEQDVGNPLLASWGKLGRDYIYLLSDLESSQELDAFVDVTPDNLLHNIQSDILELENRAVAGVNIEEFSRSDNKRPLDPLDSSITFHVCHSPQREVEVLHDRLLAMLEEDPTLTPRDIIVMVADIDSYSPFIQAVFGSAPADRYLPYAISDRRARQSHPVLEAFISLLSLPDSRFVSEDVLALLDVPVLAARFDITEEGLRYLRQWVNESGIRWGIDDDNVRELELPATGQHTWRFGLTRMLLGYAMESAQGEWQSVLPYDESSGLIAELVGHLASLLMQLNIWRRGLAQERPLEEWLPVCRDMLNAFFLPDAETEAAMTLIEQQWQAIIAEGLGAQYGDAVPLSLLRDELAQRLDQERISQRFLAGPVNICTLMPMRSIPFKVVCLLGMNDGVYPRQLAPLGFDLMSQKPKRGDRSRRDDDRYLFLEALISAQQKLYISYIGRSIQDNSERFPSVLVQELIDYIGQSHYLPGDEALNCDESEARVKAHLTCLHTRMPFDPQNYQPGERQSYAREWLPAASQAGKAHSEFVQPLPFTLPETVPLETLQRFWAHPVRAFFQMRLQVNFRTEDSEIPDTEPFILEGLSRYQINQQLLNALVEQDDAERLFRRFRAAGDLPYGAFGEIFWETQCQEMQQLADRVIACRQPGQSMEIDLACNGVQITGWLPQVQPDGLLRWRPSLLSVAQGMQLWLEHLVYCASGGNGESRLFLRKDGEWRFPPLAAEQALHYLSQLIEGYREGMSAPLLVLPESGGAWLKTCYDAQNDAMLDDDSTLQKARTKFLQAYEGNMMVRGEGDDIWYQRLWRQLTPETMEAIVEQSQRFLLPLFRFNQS
T1 sequence (P08394 whole entry): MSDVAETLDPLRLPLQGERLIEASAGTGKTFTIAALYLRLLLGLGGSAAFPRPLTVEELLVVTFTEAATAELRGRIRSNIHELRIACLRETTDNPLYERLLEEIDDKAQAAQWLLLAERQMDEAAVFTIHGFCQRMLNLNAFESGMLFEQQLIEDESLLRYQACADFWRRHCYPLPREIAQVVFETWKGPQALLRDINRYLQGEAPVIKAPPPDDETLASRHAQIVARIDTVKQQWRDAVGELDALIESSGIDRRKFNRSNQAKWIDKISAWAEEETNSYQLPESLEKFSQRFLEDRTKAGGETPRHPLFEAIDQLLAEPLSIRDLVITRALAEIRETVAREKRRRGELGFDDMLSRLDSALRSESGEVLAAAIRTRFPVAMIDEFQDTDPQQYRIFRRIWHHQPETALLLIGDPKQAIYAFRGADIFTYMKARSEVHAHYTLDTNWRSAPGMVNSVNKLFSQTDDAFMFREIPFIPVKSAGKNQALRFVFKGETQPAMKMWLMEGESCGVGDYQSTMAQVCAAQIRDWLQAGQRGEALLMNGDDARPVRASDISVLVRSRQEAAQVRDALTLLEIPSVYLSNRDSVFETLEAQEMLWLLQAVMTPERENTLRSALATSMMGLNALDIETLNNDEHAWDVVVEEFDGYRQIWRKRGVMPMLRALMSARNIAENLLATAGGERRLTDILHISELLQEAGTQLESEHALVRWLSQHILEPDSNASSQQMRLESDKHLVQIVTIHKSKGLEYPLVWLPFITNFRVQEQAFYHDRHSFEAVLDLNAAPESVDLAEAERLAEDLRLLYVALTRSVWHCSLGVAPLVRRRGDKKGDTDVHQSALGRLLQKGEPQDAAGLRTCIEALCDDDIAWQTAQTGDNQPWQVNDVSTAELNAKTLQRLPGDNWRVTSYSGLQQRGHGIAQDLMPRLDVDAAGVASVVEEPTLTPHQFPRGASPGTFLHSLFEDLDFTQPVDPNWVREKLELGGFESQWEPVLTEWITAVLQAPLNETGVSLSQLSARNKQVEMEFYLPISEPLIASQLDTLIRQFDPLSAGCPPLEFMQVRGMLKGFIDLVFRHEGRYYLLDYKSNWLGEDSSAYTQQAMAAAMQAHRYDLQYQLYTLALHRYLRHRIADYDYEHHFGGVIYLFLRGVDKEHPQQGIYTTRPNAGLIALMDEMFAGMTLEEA
As to the kind of experiment: E. coli RecBCD inhibitors, dose response, counter-screen for AddAB inhibitor project, absorbance, V66 E. coli, mutant T4 phage (AID 492957). In kind it is functional, cell-based, Escherichia coli str. K-12 substr. MG1655.

Serine/threonine-protein kinase PLK1, sequence (P53350 whole entry): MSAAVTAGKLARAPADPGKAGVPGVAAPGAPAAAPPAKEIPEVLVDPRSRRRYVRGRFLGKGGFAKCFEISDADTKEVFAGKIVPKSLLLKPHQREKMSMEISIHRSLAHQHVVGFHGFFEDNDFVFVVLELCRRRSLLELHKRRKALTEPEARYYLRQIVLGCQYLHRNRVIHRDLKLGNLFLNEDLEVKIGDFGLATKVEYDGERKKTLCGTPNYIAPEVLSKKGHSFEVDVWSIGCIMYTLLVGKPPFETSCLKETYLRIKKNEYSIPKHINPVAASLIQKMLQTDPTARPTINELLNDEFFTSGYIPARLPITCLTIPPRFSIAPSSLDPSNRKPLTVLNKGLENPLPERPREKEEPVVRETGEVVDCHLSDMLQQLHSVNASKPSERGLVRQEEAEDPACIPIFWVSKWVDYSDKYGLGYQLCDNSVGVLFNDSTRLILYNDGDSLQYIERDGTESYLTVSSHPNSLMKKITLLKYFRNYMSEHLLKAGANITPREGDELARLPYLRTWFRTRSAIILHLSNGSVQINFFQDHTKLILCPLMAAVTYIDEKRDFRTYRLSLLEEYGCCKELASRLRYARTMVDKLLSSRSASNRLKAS

As for `Cc1cccc(NC(=O)Nc2ccc3c(c2)CCc2sc4ncnc(N)c4c2-3)c1`, the Ki in assay [1] is 5.01 µM (active); in assay [2], > 7.94 µM (inactive).

Regarding `Cc1ccc(-n2sc3ccccc3c2=O)cc1`, in assay [3], the EC50 is listed as > 120 µM (not active).

Turning to `CCC(=O)NC(c1ccc(C)cc1)c1ccc2cccnc2c1O` (stereo not drawn), the EC50 in “cells” is given as > 350 µM (not active). Further, the IC50 at Exodeoxyribonuclease V is > 119 µM (inactive).

`CC(=O)N(/N=C1\Sc2ccccc2C1=O)c1ccccc1C`: the EC50 in assay [3] is 2.51 µM (active).

With `CCCC(=O)NC(c1ccc(Cl)cc1)c1ccc2cccnc2c1O` (stereo not drawn), the half-maximal effective concentration (EC50) in “cells” is reported as > 350 µM (not active). At Exodeoxyribonuclease V, the IC50 was > 119 µM (inactive).
